Results reported in EP1458697B1, “BIPHENYLMETHYL-THIAZOLIDINEDIONES AND ANALOGUES AND THEIR USE AS PPAR-GAMMA ACTIVATORS” (Galderma Research & Development, S.N.C., priority 2001, dated 2003).

Legend:
[1] = target: T1, récepteur chimère Gal-PPARγ (LBD) (Homo sapiens, UniProt P37231); experiment: Transactivation test, Hela cells stably transfected with chimeric receptor Gal-PPARγ (LBD), luciferase readout; format: cell-based; conditions: M-HeLa, 24 h, compound at 1 microM, percent of activation relative to reference agonist at 1 µM, read-out: % d'activation (à 1 microM) PPARγ
T1 construct: le récepteur chimère Gal-PPARγ (LBD); Gal (fusion partner); expressed in transfected cells; host or cells: HeLa cells, stably transfected
T1 sequence (P37231 238-503 limits assumed): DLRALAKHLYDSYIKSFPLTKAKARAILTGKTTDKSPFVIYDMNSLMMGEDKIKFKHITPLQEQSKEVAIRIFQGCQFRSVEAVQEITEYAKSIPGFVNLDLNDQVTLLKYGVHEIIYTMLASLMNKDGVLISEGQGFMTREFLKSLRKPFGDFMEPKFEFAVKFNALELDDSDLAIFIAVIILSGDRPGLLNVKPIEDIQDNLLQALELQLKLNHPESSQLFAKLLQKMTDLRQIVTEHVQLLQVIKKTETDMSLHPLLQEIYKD
Experimental: L'activité agoniste vis à vis des récepteurs PPARγ des composés selon l'invention peut être évaluée par des tests de transactivation.
(§1) La capacité des molécules à activer et/ou inhiber les récepteurs PPARγ est évaluée à partir de cellules Hela transfectées de manière stable avec le récepteur chimère Gal-PPARγ (LBD).
(§2) Des plaques 96 puits sont ensemencées à raison de 10 000 cellules /100 µl / puit dans du milieu DMEM 10% SDL puis placées 24 heures à 37°C, 7% CO2.
(§3) Pour déterminer l'activité agoniste PPARγ, les cellules sont ensuite traitées par ajout de 5 µl puit des molécules à tester à la concentration finale de 1 µM. Des cellules sont également traitées en parallèle avec un agoniste de référence, l'acide (-)-3-{4-[2-(Benzooxazol-2-yl-methyl-amino)-ethoxy]-phenyl}-2-ethoxy-propionique, 1 µM.
(§4) Après une nouvelle incubation de 24 heures à 37°C, 7% CO2, un dosage de la luciférase est effectué à l'aide du kit « Steady-Glo Luciferase Assay System » de Promega. Le comptage de la luminescence se fait sur un lecteur de microplaque Microbéta Trilux (Wallac).
(§5) L'activité agoniste du produit testé sera exprimée en pourcentage d'activation par rapport au témoin agoniste l'agoniste de référence à 1 µM.
(§6) L'AC50, exprimée en nM, est déterminée comme la concentration permettant d'obtenir 50% d'activation du signal basal par rapport à l'agoniste de référence.

[2] = target: T2, récepteur chimère Gal-PPARα (Homo sapiens, UniProt Q07869); experiment: Transactivation test, same protocol with chimeric receptor Gal-PPARα; format: cell-based; conditions: Hela cells; for activation at 1 µM: 24 h, compound at 1 microM, percent of activation relative to reference agonist (Wy 14643 = 100%), read-out: % d'activation (à 1 microM) PPARα
T2 sequence (Q07869 167-468): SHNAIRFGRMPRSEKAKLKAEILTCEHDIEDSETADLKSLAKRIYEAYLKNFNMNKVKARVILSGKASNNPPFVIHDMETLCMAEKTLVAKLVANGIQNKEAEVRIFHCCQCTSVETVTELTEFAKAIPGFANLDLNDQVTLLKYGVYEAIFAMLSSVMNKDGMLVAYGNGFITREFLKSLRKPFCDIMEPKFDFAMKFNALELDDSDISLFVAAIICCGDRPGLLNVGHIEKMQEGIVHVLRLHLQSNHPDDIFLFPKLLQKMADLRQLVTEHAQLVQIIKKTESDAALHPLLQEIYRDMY
Text: De préférence, l'activateur des récepteurs de type PPARγ est spécifique, c'est à dire qu'il présente un rapport du pourcentage d'activation des récepteurs PPARγ, au pourcentage d'activation des récepteurs PPARα (calculé par rapport à un composé de référence, le Wy 14643, activant les PPARα de 100%) supérieur ou égal à 3. De préférence, ce rapport est supérieur ou égal à 5 et plus avantageusement supérieur ou égal à 10.
as §1, §2, §3, §4, §5
En appliquant ce même protocole avec le récepteur chimère Gal-PPARα, on peut mesurer l'activité agoniste des composés vis à vis des récepteurs PPAR alpha et ainsi la comparer avec celui du récepteur PPARγ.
as §6

CN(C(=O)Nc1ccc2ccccc2c1)c1cccc(-c2ccc(CC3SC(=O)NC3=O)cc2)c1 (centres unmarked) [Composé de l'exemple 21, 1-[4'-(2,4-Dioxo-thiazolidin-5-ylmethyl)-biphenyl-3-yl]-1-methyl-3-naphthalen-2-yl-urée]
activation at 1 µM [1]: 104%
activation at 1 µM [2]: -4.2%

CN(Cc1cccc(-c2ccc(CC3SC(=O)NC3=O)cc2)c1)C(=O)c1ccc(-c2ccccc2)cc1 (centres unmarked) [Composé de l'exemple 10, N-[4'-(2,4-dioxo-thiazolidin-5-ylmethyl)-biphenyl-3-ylmethyl]-N-methyl-biphenyl-4-carboxamide]
activation at 1 µM [1]: 183%
activation at 1 µM [2]: 13.8%
AC50 ([2]; concentration giving 50% activation relative to reference agonist, read-out: AC50 (en nM) PPARα): > 50000 nM
